Patent US8613931B2, “Compounds for treating beta-amyloidoses” (Affiris AG, priority 2008, dated 2013)
Square brackets hold non-standard residues; d marks the D form. Ends that are not written are not given here. pGlu = O=C1CC[C@@H](C(=O)O)N1

Assays:
[1] = tested on: monoclonal antibody MV-003; assay: In vitro binding assay (ELISA), parental antibody MV-003; set-up: species or system BalbC mice; details: peptide-BSA on ELISA plate; OD halfmax, dilution factor 1:X of parental AB MV-003
Experimental: (§1) 1. In vitro binding assay (ELISA)
(§2) Peptides derived from Phage Display as well as variants thereof were coupled to BSA and bound to ELISA plates (1 μM; as indicated in the respective figures) and subsequently incubated with the monoclonal antibody that was used for the screening procedure to analyse binding capacity of identified peptides.

[2] = tested on: monoclonal antibody MV-003; assay: In vitro inhibition assay (ELISA), MV-003 binding to original epitope; set-up: species or system BalbC mice; details: OD at 10 μg peptide compared to original peptide
Experimental: (§3) 2. In vitro inhibition assay (ELISA)
(§4) Different amounts of peptides (concentrations ranging from 10 μg to 0.08 μg; serial dilutions), derived from Phage Display were incubated with the monoclonal antibody that was used for the screening procedure. Peptides diminishing subsequent binding of the antibody to the original epitope coated on ELISA plates were considered as inhibiting in this assay.

[3] = tested on: monoclonal antibody MV-004; assay: In vitro inhibition assay (ELISA), MV-004 binding to original epitope; set-up: species or system BalbC mice; details: OD at 10 μg peptide compared to original peptide
Experimental: as §3, §4

p4371 = assay: Mimotope vaccination, serum reactivity against p4371; assay type: in vivo, C57/bl6 mice; details: sera of mice s.c. immunized with 30 μg peptide coupled to KLH, alum
Experimental: (§5) Inhibiting as well as non-inhibiting peptides were coupled to KLH and injected into mice (wildtype C57/Bl6 mice; subcutaneous injection into the flank) together with an appropriate adjuvant (aluminium hydroxide). Animals were vaccinated 3-6 times in biweekly intervals and sera were taken biweekly as well. Titers to injected peptides, as well as to an irrelevant peptide were determined with every serum. Furthermore, titers against the recombinant human Aβ protein, and against original peptides were determined respectively. In general sera were analysed by reaction against peptides coupled to Bovine Serum Albumin (BSA) and recombinant full length proteins which were immobilised on ELISA plates. Titers were determined using anti mouse IgG specific antibodies. For detailed results see FIGS. 6, 7 and 8 respectively.
(§6) Female C57/bl6 mice, 5-6 mice per group, were subcutaneously immunized with 30 μg peptide coupled to KLH. Control groups were administered original epitope-KLH conjugates respectively. As adjuvant alum was used (always 1 mg per mouse). […] The in vitro ELISA assay to determine the antibody titer was performed with sera of single mice after each vaccination in a two week interval (see FIGS. 6 and 7 respectively). The wells of the ELISA plate were coated with mimotope-BSA conjugate and an irrelevant peptide-BSA conjugate (negative control). […]

[4] = tested on: monoclonal antibody MV-001; assay: In vitro inhibition assay (ELISA), MV-001 binding to original epitope; set-up: species or system C57/Bl6 mice; details: OD at 10 μg peptide compared to original peptide
Experimental: as §3, §4

[5] = tested on: full length and/or truncated and modified forms of Aβ; assay: In vivo characterisation of mimotopes: detection of Aβ/truncated/modified forms; set-up: species or system C57/bl6 mice; key: +: All peptides listed in Table 4 mount specific immune reactions against full length and/or truncated and modified forms of Aβ or fragments thereof; details: MV-001 derived mimotopes; mimotope vaccination
Experimental: as §5
(§7) Female C57/bl6 mice, 5-6 mice per group, were subcutaneously immunized with 30 μg peptide coupled to KLH. Control groups were administered original epitope-KLH conjugates respectively. As adjuvant alum was used (always 1 mg per mouse). […] The in vitro ELISA assay to determine the antibody titer was performed with sera of single mice after each vaccination in a two week interval (see FIGS. 6 and 7 respectively). The wells of the ELISA plate were coated with mimotope-BSA conjugate and an irrelevant peptide-BSA conjugate (negative control). The positive control was performed by reaction of the parental antibody with the respective mimotope-BSA conjugate. The detection was performed with anti-mouse IgG. Additionally, recombinant proteins were immobilised on ELISA plates and sera reacted accordingly. FIGS. 6 to 8 show representative examples for assays used to characterise mimotopes in vivo.

Tg2576 AD mouse model = assay: Area occupied by amyloid plaques in Tg2576 mice after mimotope vaccination; assay type: in vivo; details: Tg2576, 6 s.c. injections at monthly intervals, peptide-KLH conjugate with ALUM; for average area occupied by amyloid plaques: mAb 3A5 staining, control group 0.35%; for reduction of area occupied by amyloid plaques following mimotope treatment: versus control group
[6] = tested on: monoclonal antibody MV-001; assay: In vitro binding assay (ELISA), parental antibody MV-001; set-up: species or system C57/Bl6 mice; details: peptide-BSA on ELISA plate; OD halfmax, dilution factor 1:X of parental AB MV-001
Experimental: as §1, §2

p4373 = assay: Mimotope vaccination, serum reactivity against p4373; assay type: in vivo, C57/bl6 mice; details: sera of mice s.c. immunized with 30 μg peptide coupled to KLH, alum
Experimental: as §5, §6

[7] = tested on: full length and/or truncated and modified forms of Aβ; assay: In vivo characterisation of mimotopes: detection of Aβ/truncated/modified forms; set-up: species or system C57/bl6 mice; key: +: All peptides listed in Table 5 mount specific immune reactions against full length and/or truncated and modified forms of Aβ or fragments thereof; details: MV-003 derived mimotopes; mimotope vaccination
Experimental: as §5, §7

[8] = biological target: monoclonal antibody MV-003; assay: ELISA, peptide-BSA coated, MV-003; details: for Binding Capacity: scale: code
[9] = biological target: monoclonal antibody MV-003; assay: inhibition ELISA; competitor: coated original epitope p4373
[10] = biological target: monoclonal antibody MV-004; assay: ELISA, peptide-BSA coated, MV-004
[11] = biological target: monoclonal antibody MV-004; assay: inhibition ELISA; competitor: coated original epitope p4372; details: scale: code

IRWDTSLC [p4728]
Binding Capacity [1]: 3 (strong binding :>60000)
Inhibition Capacity [2]: 2 (strong inhibition (as original epitope; OD of 10 μg peptide below 5 times of original peptide))

IRWDGC [p4792]
Inhibition Capacity [2]: 1 (Weaker than original epitope (OD of 10 μg peptide below 12 times of original peptide))

EVWHRGC [p4788]
Inhibition Capacity [3]: 1 (Weaker than original epitope (OD of 10 μg peptide below 5 times of original peptide))

ELWHRAC [p4786]
Inhibition Capacity [3]: 1 (Weaker than original epitope (OD of 10 μg peptide below 5 times of original peptide))

EVWHRHQC [p4417]
Inhibition Capacity [3]: 1 (Weaker than original epitope (OD of 10 μg peptide below 5 times of original peptide))

ERWHEKHC [p4418]
Inhibition Capacity [3]: 2 (strong inhibition (as original epitope; OD of 10 μg peptide below 2 times of original peptide))

p(E)FRHDS-C ([pGlu]FRHDSC) [p4373]
immune response against p4371 (p4371): mount relevant titers

ILFRHGC [p4390]
Inhibition Capacity [4]: 1 (Weaker than original epitope (OD of 10 μg peptide below 3 times of original peptide))
Detection of Aβ/truncated/modified forms [5]: +
average area occupied by amyloid plaques (Tg2576 AD mouse model): 0.14%
reduction of area occupied by amyloid plaques following mimotope treatment (Tg2576 AD mouse model): 60%
Binding Capacity [6]: 3 (strong binding :>20000)

EVWHRLQC [p4419]
Inhibition Capacity [3]: 2 (strong inhibition (as original epitope; OD of 10 μg peptide below 2 times of original peptide))

EFRHDS-C (EFRHDSC) [p4371]
immune response against p4373 (p4373): mount relevant titers

IRWDGGC [p4793]
Inhibition Capacity [2]: 1 (Weaker than original epitope (OD of 10 μg peptide below 12 times of original peptide))

IRWDQPC [p4756]
Binding Capacity [1]: 3 (strong binding :>60000)
Inhibition Capacity [2]: 1 (Weaker than original epitope (OD of 10 μg peptide below 12 times of original peptide))

VRWDVYPC [p4396]
Detection of Aβ/truncated/modified forms [7]: +

IRYDAPLC [p4397]
Detection of Aβ/truncated/modified forms [7]: +
Inhibition Capacity [2]: 1 (Weaker than original epitope (OD of 10 μg peptide below 12 times of original peptide))

ELWHRAFC [p4665]
Inhibition Capacity [3]: 2 (strong inhibition (as original epitope; OD of 10 μg peptide below 2 times of original peptide))

TLHEFRHC [p4715]
Inhibition Capacity [4]: 2 (strong inhibition (as original epitope; OD of 10 μg peptide below 2 times of original peptide))
Detection of Aβ/truncated/modified forms [5]: +
average area occupied by amyloid plaques (Tg2576 AD mouse model): 0.22%
reduction of area occupied by amyloid plaques following mimotope treatment (Tg2576 AD mouse model): 36%
Binding Capacity [6]: 3 (strong binding :>20000)

ELWHRYPC [p4420]
Inhibition Capacity [3]: 1 (Weaker than original epitope (OD of 10 μg peptide below 5 times of original peptide))

ERWHEKC [p4790]
Inhibition Capacity [3]: 2 (strong inhibition (as original epitope; OD of 10 μg peptide below 2 times of original peptide))

EVWHRHC [p4789]
Inhibition Capacity [3]: 1 (Weaker than original epitope (OD of 10 μg peptide below 5 times of original peptide))

IRYDMAGC [p4399]
Detection of Aβ/truncated/modified forms [7]: +

SEFKHGC [p4381]
Inhibition Capacity [4]: 1 (Weaker than original epitope (OD of 10 μg peptide below 3 times of original peptide))
Detection of Aβ/truncated/modified forms [5]: +
average area occupied by amyloid plaques (Tg2576 AD mouse model): 0.11%
reduction of area occupied by amyloid plaques following mimotope treatment (Tg2576 AD mouse model): 67%
Binding Capacity [6]: 3 (strong binding :>20000)

IRWDTPC [p4395]
Detection of Aβ/truncated/modified forms [7]: +
average area occupied by amyloid plaques (Tg2576 AD mouse model): 0.21%
reduction of area occupied by amyloid plaques following mimotope treatment (Tg2576 AD mouse model): 38%
Inhibition Capacity [2]: 1 (Weaker than original epitope (OD of 10 μg peptide below 12 times of original peptide))

B1: p4395 (peptide)
peptide: IRWDTPC
Binding Capacity [8]: 2
Inhibition Capacity (code (weaker than original epitope)) [9]: 1

B2: p4396 (peptide)
peptide: VRWDVYPC
Binding Capacity (code (weak binding, OD halfmax 1:<16000)) [8]: 1

B3: p4397 (peptide)
peptide: IRYDAPLC
Binding Capacity (code (weak binding, OD halfmax 1:<16000)) [8]: 1
Inhibition Capacity (code (weaker than original epitope)) [9]: 1

B4: p4728 (peptide)
peptide: IRWDTSLC
Binding Capacity [8]: 3
Inhibition Capacity ([9]; scale: code): 2

B5: p4756 (peptide)
peptide: IRWDQPC
Binding Capacity [8]: 3
Inhibition Capacity (code (weaker than original epitope)) [9]: 1

B6: p4792 (peptide)
peptide: IRWDGC
Binding Capacity (code (weak binding, OD halfmax 1:<16000)) [8]: 1
Inhibition Capacity (code (weaker than original epitope)) [9]: 1

B7: p4793 (peptide)
peptide: IRWDGGC
Binding Capacity [8]: 2
Inhibition Capacity (code (weaker than original epitope)) [9]: 1

B8: p4790 (peptide)
peptide: ERWHEKC
Binding Capacity (code (weak binding, OD halfmax 1:<24000)) [10]: 1
Inhibition Capacity [11]: 2

B9: p4399 (peptide)
peptide: IRYDMAGC
Binding Capacity (code (weak binding, OD halfmax 1:<16000)) [8]: 1
